# Measurements reported in patent US20060135773A1, “Trisubstituted nitrogen modulators of tyrosine phosphatases” (priority 2004, published 2006).
# Molecular target: T1, PTP-1B (Homo sapiens, UniProt P18031)
# T1 construct: PTP-1B (purified, 1 mg/mL) as a 1:250 dilution
# T1 sequence (P18031 1-321 limits assumed): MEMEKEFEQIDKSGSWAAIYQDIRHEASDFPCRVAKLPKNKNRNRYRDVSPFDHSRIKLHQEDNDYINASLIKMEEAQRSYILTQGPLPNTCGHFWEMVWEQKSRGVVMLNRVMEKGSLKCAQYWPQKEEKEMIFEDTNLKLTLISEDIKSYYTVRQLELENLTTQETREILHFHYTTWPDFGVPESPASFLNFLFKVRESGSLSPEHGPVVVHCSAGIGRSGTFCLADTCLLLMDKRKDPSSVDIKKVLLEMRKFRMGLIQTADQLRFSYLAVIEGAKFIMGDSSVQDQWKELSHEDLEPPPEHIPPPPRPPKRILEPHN
# Experiment: pNPP tyrosine phosphatase inhibition assay, PTP-1B
# Assay type: biochemical
# Conditions: pNPP assay, PTP-1B; read-out: Activity Class (IC50 ranges)
# Outline: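 Test compounds were screened at two final levels, 31.3 and 10 µM, against 4 µg/mL purified PTP-1B. The substrate was 10 mM p-nitrophenyl phosphate, with incubation for 10 min at 30°C before a K2CO3 quench. Activity was taken from A405.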
row,Compound,IC50 [nM]
1,"COc1ccccc1S(=O)(=O)N(Cc1ccc(N(CC(=O)O)C(=O)C(=O)O)cc1)Cc1ccc(S(C)(=O)=O)cc1 [Compound 136, N-Carboxymethyl-N-(4-{[(4-methanesulfonyl-benzyl)-(2-methoxy-benzenesulfonyl)-amino]-methyl}-phenyl)-oxalamic acid]",> 25000
2,"2,2-Dimethyl-propionic acid [(2-bromo-4-{[(4-methanesulfonyl-phenyl)-(2-methoxy-benzenesulfonyl)-amino]-methyl}-phenyl)-difluoro-methyl]-(2,2-dimethyl-propionyloxymethoxy)-phosphinoyloxymethyl ester [Compound 229]",> 25000
3,"2,2-Dimethyl-propionic acid [(2-bromo-4-{[(4-methanesulfonyl-phenyl)-(2-methoxy-benzenesulfonyl)-amino]-methyl}-phenyl)-difluoro-methyl]-hydroxy-phosphinoyloxymethyl ester [Compound 228]",2500 to 25000
4,"O=P(O)(O)C(F)(F)c1ccc(CN(Cc2ccc(C(F)(F)P(=O)(O)O)cc2)S(=O)(=O)c2ccc3ccccc3c2)cc1 [Compound 71, [(4-{[[4-(Difluoro-phosphono-methyl)-benzyl]-(naphthalene-2-sulfonyl)-amino]-methyl}-phenyl)-difluoro-methyl]-phosphonic acid]",250 to 499
5,"COc1ccccc1S(=O)(=O)N(Cc1ccc(C(F)(F)P(=O)(O)O)c(Cl)c1)Cc1ccccc1-c1cccnc1 [Compound 179, [(2-Chloro-4-{[(2-methoxy-benzenesulfonyl)-(2-pyridin-3-yl-benzyl)-amino]-methyl}-phenyl)-difluoro-methyl]-phosphonic acid]",100 to 249
6,"COc1ccccc1S(=O)(=O)N(Cc1ccc(C(=O)O)cc1)Cc1ccc(-c2nnn[nH]2)cc1 [Compound 116, N-(4-[hydroxycarbonyl]-benzyl)-2-methoxy-N-[4-(1H-tetrazol-5-yl)-benzyl]-benzenesulfonamide]",> 25000
7,"COc1ccccc1S(=O)(=O)N(Cc1ccc(C(F)(F)P(=O)(O)O)c(Cl)c1)Cc1ccccc1C [Compound 167, [(2-Chloro-4-{[(2-methoxy-benzenesulfonyl)-(2-methyl-benzyl)-amino]-methyl}-phenyl)-difluoro-methyl]-phosphonic acid]",250 to 499
8,"COc1ccccc1S(=O)(=O)N(Cc1ccc(N(C)C(=O)C(=O)O)cc1)Cc1ccc(N(C)C(=O)C(=O)O)cc1 [Compound 141, N-[4-({(2-Methoxy-benzenesulfonyl)-[4-(methyl-oxalyl-amino)-benzyl]-amino}-methyl)-phenyl]-N-methyl-oxalamic acid]",> 25000
9,"O=C(O)c1ccc(CN(Cc2ccc(C(=O)O)cc2)S(=O)(=O)c2ccccc2)cc1 [Compound 78, 4-([Benzenesulfonyl-(4-carboxybenzyl)-amino]-methyl)-benzoic acid]",> 25000
10,"COc1ccccc1S(=O)(=O)N(Cc1ccc(Cl)c(Cl)c1)Cc1ccc(C(F)(F)P(=O)(O)O)c(Cl)c1 [Compound 146, [(2-Chloro-4-{[(3,4-dichloro-benzyl)-(2-methoxy-benzenesulfonyl)-amino]-methyl}-phenyl)-difluoro-methyl]-phosphonic acid]",250 to 499
11,"O=P(O)(O)C(F)(F)c1ccc(CN(Cc2ccc(C(F)(F)P(=O)(O)O)cc2)S(=O)(=O)c2ccc(Cl)c(Cl)c2)cc1 [Compound 77, {[4-({(3,4-Dichloro-benzenesulfonyl)-[4-(difluoro-phosphono-methyl)-benzyl]-amino}-methyl)-phenyl]-difluoro-methyl}-phosphonic acid]",250 to 499
12,"COc1ccccc1S(=O)(=O)N(Cc1ccc(Cl)c(Cl)c1)Cc1ccc(C(F)(F)P(=O)(O)O)c(Br)c1 [Compound 101, [(2-Bromo-4-{[(3,4-dichloro-benzyl)-(2-methoxy-benzenesulfonyl)-amino]-methyl}-phenyl)-difluoro-methyl]-phosphonic acid]",100 to 249
13,"COc1ccccc1S(=O)(=O)N(Cc1ccc(OCC(=O)O)c(C(=O)O)c1)Cc1ccccc1-c1ccccc1 [Compound 224, 5-{[Biphenyl-2-ylmethyl-(2-methoxy-benzenesulfonyl)-amino]-methyl}-2-carboxymethoxy-benzoic acid]",> 25000
14,"COc1ccccc1S(=O)(=O)N(Cc1ccc(-c2cccc(C#N)c2)cc1)Cc1ccc(C(F)(F)P(=O)(OCOC(=O)C(C)(C)C)OCOC(=O)C(C)(C)C)c(Cl)c1 [Compound 226, 2,2-Dimethyl-propionic acid [(2-chloro-4-{[(3′-cyano-biphenyl-4-ylmethyl)-(2-methoxy-benzenesulfonyl)-amino]-methyl}-phenyl)-difluoro-methyl]-(2,2-dimethyl-propionyloxymethoxy)-phosphinoyloxymethyl ester]",> 25000
15,5-{4-[({[4-(difluorophosphonomethyl)phenyl]methyl}[(2-methoxyphenyl)sulfonyl]amino)methyl]phenyl}-2-hydroxybenzoic acid [Compound 210],250 to 499
16,"O=P(O)(O)C(F)(F)c1ccc(CN(Cc2ccc(C(F)(F)P(=O)(O)O)cc2)S(=O)(=O)c2ccccc2F)cc1 [Compound 83, [(4-{[[4-(Difluoro-phosphono-methyl)-benzyl]-(2-fluoro-benzenesulfonyl)-amino]-methyl}-phenyl)-difluoro-methyl]-phosphonic acid]",250 to 499
17,"O=P(O)(O)C(F)(F)c1ccc(CN(Cc2ccc(C(F)(F)P(=O)(O)O)cc2)S(=O)(=O)c2ccc(-c3ccccc3)cc2)cc1 [Compound 66, {[4-({(Biphenyl-4-sulfonyl)-[4-(difluoro-phosphono-methyl)-benzyl]-amino}-methyl)-phenyl]-difluoro-methyl}-phosphonic acid]",250 to 499
18,{[4-(difluorophosphonomethyl)-3-chlorophenyl]methyl}[(2-methoxyphenyl)sulfonyl]{[2-(4-methylphenyl)phenyl]methyl}amine [Compound 198],< 99
19,{[4-(difluorophosphonomethyl)-3-chlorophenyl]methyl}[(2 methoxyphenyl)sulfonyl]{[2-(3-methylthiophenyl)phenyl]methyl}amine [Compound 206],< 99
20,"COc1ccccc1S(=O)(=O)N(Cc1ccc(-c2ccc(S(C)(=O)=O)cc2)c(C)c1)Cc1ccc(C(F)(F)P(=O)(O)O)c(Cl)c1 [Compound 151, [(2-Chloro-4-{[(4′-methanesulfonyl-2-methyl-biphenyl-4-ylmethyl)-(2-methoxy-benzenesulfonyl)-amino]-methyl}-phenyl)-difluoro-methyl]-phosphonic acid]",250 to 499
21,"N#Cc1cccc(-c2ccc(CN(Cc3ccc(C(F)(F)P(=O)(O)O)c(Cl)c3)S(=O)(=O)c3ccccc3Cl)cc2)c1 [Compound 163, [(2-Chloro-4-{[(2-chloro-benzenesulfonyl)-(3′-cyano-biphenyl-4-ylmethyl)-amino]-methyl}-phenyl)-difluoro-methyl]-phosphonic acid]",100 to 249
22,"O=P(O)(O)C(F)(F)c1ccc(CN(Cc2ccc(C(F)(F)P(=O)(O)O)c(Br)c2)S(=O)(=O)c2ccc3ccccc3c2)cc1Br [Compound 99, [(2-Bromo-4-{[[3-bromo-4-(difluoro-phosphono-methyl)-benzyl]-(naphthalene-2-sulfonyl)-amino]-methyl}-phenyl)-difluoro-methyl]-phosphonic acid]",< 99
23,"COc1ccccc1S(=O)(=O)N(Cc1ccc(C(=O)C(=O)O)cc1)Cc1ccc(S(C)(=O)=O)cc1 [Compound 125, (4-{[(4-Methanesulfonyl-benzyl)-(2-methoxy-benzenesulfonyl)-amino]-methyl}-phenyl)-oxo-acetic acid]",> 25000
24,"O=P(O)(O)C(F)(F)c1ccc(CN(c2ccc(Cl)c(Cl)c2)S(=O)(=O)c2ccccc2)cc1Br [Compound 34, [(4-{[Benzenesulfonyl-(3,4-dichloro-phenyl)-amino]-methyl}-2-bromo-phenyl)-difluoro-methyl]-phosphonic acid]",250 to 499
25,"O=P(O)(O)C(F)(F)c1ccc(CN(Cc2ccccc2-c2ccccc2)S(=O)(=O)c2cnccc2I)cc1Cl [Compound 230, [(4-{[Biphenyl-2-ylmethyl-(4-iodo-pyridine-3-sulfonyl)-amino]-methyl}-2-chloro-phenyl)-difluoro-methyl]-phosphonic acid]",100 to 249
26,"CS(=O)(=O)N(Cc1ccc(C(F)(F)P(=O)(O)O)cc1)Cc1ccc(C(F)(F)P(=O)(O)O)cc1 [Compound 131, {[4-({[4-(Difluoro-phosphono-methyl)-benzyl]-methanesulfonyl-amino}-methyl)-phenyl]-difluoro-methyl}-phosphonic acid]",2500 to 25000
27,"O=P(O)(O)C(F)(F)c1ccc(CN(Cc2ccc(C(F)(F)P(=O)(O)O)cc2)c2ccc(-c3ccccc3)cc2)cc1 [Compound 62, {[4-({Biphenyl-4-yl-[4-(difluoro-phosphono-methyl)-benzyl]-amino}-methyl)-phenyl]-difluoro-methyl}-phosphonic acid]",2500 to 25000
28,5-{4-[({[4-(difluorophosphonomethyl)-3-chlorophenyl]methyl}[(2-methoxyphenyl)sulfonyl]amino)methyl]phenyl}-2-methoxybenzoic acid [Compound 207],< 99
29,"O=P(O)(O)C(F)(F)c1ccc(CN(Cc2ccc(C(F)(F)P(=O)(O)O)cc2)S(=O)(=O)c2cccc3ccccc23)cc1 [Compound 67, [(4-{[[4-(Difluoro-phosphono-methyl)-benzyl]-(naphthalene-1-sulfonyl)-amino]-methyl}-phenyl)-difluoro-methyl]-phosphonic acid]",2500 to 25000
